Data on one molecule can be found in patent US7579350B2, “Scaffolds for α-helix mimicry” (The Scripps Research Institute, priority 2005, dated 2009).

The structures appear in SMILES notation.

As a reminder, the melting point is the temperature, or range, at which the solid turns liquid.

On to `COC(=O)c1cccc(-c2nnc(-c3ccccc3[N+](=O)[O-])cc2Cc2ccccc2)c1`, for which the melting point was found to be 130 °C.
